Data published in patent US20030060397A1, “Method of treating and preventing acute neural lesions with substances that modulate the expression or function of a protein involved in the cell cycle and pharmaceutical preparations containing such substances” (priority 2000, published 2003).

Tests used:
[1] = system: hippocampus cells; assay: Kainate-dependent neuronal death in primary hippocampus cell cultures (propidium iodine); assay type: cell-based, Wistar rats; conditions: kainate 20 μM
Procedure: Neuronal death was analyzed by phase contrast microscopy and the use of two death markers: propidium iodine and Hoechst dye (Bisbenzimide).
Counting was performed on hippocampus cultures exposed to 20 μM of kainate. At least two dishes per condition were evaluated.

[2] = system: cyclin D1; assay: Western blot of cyclin D1 expression after exposure to kainate, normalized by class III β-tubulin; assay type: cell-based, Wistar rats; conditions: kainate 75 μM, 100% before kainate
Procedure: After exposure of the hippocampus cells to kainate, the cells were washed in PBS then lysed in a Laemli buffer. The samples were subjected to sonication and heated at 100° C. for 5 minutes. Electrophoresis with a 12% SDS-polyacrylamide gel was then performed. The proteins were then transferred onto a nitrocellulose membrane and incubated with an anti-cyclin D1 monoclonal antibody or with an anti-CDK5 polyclonal antibody (Santa Cruz, Calif., USA) or with a class III anti-β-tubulin monoclonal antibody (Sigma, St. Louis, USA), a specific neuronal marker. Labeling was performed using the anti-rabbit antibody or anti-mouse antibody coupled to horseradish peroxidase using the ECLTM kit (Amersham Corp., England). The control experiments were performed by omitting the first antibodies.

[3] = system: excitotoxic neuronal death induced by kainate; conditions: inhibitors of caspases; cited from earlier work
[4] = 5 hours, in the absence of inhibitor

Compound | augmentation of neuronal death in relation to the cultures without kainate [1, 4] [%] | neuronal death [1, 4] [%] | time of mortality peak ([1]; propidium iodine) [h] | normalized level of expression of cyclin D1 (percentage of the control) [2] | prevention of excitotoxic neuronal death induced by kainate [3]
C=C(C)[C@H]1CN[C@H](C(=O)O)[C@H]1CC(=O)O [kainate] | 150 | ~65 | 5 | more than 150% | –
DEVD-CHO | – | – | – | – | can not be prevented
YVAD-CHO | – | – | – | – | can not be prevented
